Consider 15 molecules from ChEMBL document CHEMBL1909046, “DrugMatrix in vitro pharmacology data”.

Assay [1] is described as follows: DRUGMATRIX: Glutamate, Kainate radioligand binding (ligand: [3H] Kainic acid). The assay is classed as cell membranes, Rattus norvegicus, Wistar, Brain, Membrane. The note with it: Not Active = under 50% inhibition at 10 µM.
Assay [2] can be described thus: DRUGMATRIX: Leukotriene, BLT (LTB4) radioligand binding (ligand: [3H]LTB4). The assay is classed as cell membranes, Membrane. The note with it: u-937; Not Active = under 50% inhibition at 10 µM.
Assay [3] deals with T1, Leukotriene C4 synthase (Cavia porcellus, UniProt A6XA80).
T1 sequence (A6XA80 whole entry): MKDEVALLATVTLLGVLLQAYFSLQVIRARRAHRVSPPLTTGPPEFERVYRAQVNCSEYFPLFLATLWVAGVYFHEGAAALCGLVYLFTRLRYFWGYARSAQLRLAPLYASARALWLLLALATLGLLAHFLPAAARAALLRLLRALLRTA
Description: biochemical. It is filed as tissue-based, Lung.

Assay [4] concerns the target T2, Muscarinic acetylcholine receptor M2 (Homo sapiens, UniProt P08172). Note: in other assays of this panel Not Active means under 50% inhibition at 10 µM.
T2 sequence (P08172 whole entry): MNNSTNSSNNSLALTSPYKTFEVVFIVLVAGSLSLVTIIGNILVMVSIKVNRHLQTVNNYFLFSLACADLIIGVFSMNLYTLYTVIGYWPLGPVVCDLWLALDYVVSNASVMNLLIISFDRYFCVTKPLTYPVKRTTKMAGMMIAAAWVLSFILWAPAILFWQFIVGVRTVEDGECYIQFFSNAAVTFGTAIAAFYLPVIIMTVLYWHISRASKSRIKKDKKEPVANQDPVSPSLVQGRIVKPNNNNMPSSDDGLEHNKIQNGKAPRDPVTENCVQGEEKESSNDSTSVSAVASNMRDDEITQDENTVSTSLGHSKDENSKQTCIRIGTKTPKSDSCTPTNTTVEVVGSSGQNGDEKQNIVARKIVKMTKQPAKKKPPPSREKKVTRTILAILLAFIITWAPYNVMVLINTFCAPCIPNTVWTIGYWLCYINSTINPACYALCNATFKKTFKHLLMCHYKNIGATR
It is filed as cell membranes, CHO-K1, Membrane. The note with it: cho-k1.

Assay [5] deals with T3, Angiotensin-converting enzyme (Oryctolagus cuniculus, UniProt P12822).
T3 sequence (P12822 whole entry): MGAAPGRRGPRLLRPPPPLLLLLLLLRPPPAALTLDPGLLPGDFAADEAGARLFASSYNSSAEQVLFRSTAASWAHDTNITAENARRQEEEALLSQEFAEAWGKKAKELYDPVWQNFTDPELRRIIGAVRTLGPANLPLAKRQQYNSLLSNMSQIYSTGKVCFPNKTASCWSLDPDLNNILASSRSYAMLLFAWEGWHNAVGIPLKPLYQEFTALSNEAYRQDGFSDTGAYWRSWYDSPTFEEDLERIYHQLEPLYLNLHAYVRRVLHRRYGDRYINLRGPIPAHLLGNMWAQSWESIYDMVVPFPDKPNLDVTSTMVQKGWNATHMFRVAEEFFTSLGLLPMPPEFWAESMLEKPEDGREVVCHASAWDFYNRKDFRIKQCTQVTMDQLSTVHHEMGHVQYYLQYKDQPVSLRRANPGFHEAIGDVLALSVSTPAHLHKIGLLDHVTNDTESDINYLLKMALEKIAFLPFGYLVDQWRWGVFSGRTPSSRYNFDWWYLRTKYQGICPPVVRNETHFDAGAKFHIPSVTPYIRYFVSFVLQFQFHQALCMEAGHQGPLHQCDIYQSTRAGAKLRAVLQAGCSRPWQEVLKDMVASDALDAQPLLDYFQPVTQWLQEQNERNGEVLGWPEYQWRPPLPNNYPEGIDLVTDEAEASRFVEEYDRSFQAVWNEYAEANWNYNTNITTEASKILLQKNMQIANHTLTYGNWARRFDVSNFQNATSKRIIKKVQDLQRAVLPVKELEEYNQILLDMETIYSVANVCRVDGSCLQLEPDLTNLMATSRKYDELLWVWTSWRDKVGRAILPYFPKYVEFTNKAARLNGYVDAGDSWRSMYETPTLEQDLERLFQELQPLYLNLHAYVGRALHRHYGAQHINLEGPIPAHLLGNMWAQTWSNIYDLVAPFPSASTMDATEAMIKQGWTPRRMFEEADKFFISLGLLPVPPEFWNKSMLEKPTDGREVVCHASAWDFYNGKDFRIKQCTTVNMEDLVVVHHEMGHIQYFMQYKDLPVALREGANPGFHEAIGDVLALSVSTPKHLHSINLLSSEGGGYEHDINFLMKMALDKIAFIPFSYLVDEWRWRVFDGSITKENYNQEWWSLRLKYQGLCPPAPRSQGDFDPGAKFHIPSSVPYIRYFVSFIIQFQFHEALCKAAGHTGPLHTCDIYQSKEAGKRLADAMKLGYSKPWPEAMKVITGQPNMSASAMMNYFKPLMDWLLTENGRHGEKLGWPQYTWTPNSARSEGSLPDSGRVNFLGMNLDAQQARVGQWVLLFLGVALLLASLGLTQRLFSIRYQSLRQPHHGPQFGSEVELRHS
Description: biochemical. It is filed as tissue-based, Lung.

In assay [6] the target is Mitogen-activated protein kinase 14 (Homo sapiens, UniProt Q16539). The arrangement: species or system Escherichia coli.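 Note: inhibition of p38alpha enzyme activity in a biochemical kinase assay, with myelin basic protein serving as substrate; in other assays of this panel Not Active means under 50% inhibition at 10 µM.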
Sequence of Mitogen-activated protein kinase 14 (Q16539 whole entry): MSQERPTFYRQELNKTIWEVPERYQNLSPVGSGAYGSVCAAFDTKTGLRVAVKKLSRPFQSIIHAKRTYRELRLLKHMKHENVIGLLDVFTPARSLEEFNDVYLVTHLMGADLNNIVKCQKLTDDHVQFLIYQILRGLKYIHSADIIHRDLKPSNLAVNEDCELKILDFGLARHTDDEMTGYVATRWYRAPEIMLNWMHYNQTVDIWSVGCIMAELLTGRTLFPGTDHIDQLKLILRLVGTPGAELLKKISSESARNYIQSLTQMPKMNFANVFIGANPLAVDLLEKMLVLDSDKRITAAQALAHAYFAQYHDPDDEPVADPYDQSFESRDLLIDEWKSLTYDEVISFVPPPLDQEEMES
The target of assay [7] is Adenosine receptor A2a (Homo sapiens, UniProt P29274). The assay can be described thus: DRUGMATRIX: Adenosine A2A radioligand binding (ligand: […]). It is filed as cell membranes, HEK293, Membrane. Particulars: hek293; Not Active = under 50% inhibition at 10 µM.
Sequence of Adenosine receptor A2a (P29274 whole entry): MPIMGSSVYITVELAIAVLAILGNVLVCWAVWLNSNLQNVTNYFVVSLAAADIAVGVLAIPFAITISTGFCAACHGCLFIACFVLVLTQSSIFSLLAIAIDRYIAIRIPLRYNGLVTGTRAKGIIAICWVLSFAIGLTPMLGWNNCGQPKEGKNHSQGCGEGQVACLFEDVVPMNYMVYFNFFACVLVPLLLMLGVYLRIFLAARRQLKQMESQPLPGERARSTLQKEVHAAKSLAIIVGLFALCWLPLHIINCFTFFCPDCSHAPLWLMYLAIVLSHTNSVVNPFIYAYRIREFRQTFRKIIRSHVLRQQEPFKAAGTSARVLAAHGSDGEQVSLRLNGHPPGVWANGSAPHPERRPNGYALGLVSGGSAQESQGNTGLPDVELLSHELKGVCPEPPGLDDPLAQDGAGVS

Molecules are shown by their SMILES.

Regarding `O=[As][O-].[Na+]` [SODIUM ARSENITE], the IC50 result in assay [1], in assay [2], in assay [3], in assay [4], in assay [5] and in assay [6] was “Not Active” in each case. In addition, the half-maximal inhibitory concentration (IC50) (usually the concentration needed to halve the response being measured) in assay [7] is “Not Active”. Further, the Ki result in assay [1] and in assay [2] was “Not Active” throughout.

Regarding `C1CCN2C[C@@H]3C[C@@H](CN4CCCC[C@@H]34)[C@H]2C1` [SPARTEINE], the half-inhibitory concentration (IC50) result in assay [1], in assay [2], in assay [3], in assay [4], in assay [5] and in assay [6] was “Not Active” in each case. In assay [7], the IC50 result is given as “Not Active”. Moreover, the Ki result in assay [1] and in assay [2] was “Not Active” in each case.

As to `C[C@]12CCC(=O)C[C@@H]1CC[C@@H]1[C@@H]2CC[C@]2(C)[C@@H](O)CC[C@@H]12` [STANOLONE], the IC50 entry in assay [1], in assay [2], in assay [3], in assay [4], in assay [5] and in assay [6] was “Not Active” in each case. Besides, the concentration for half-maximal inhibition (IC50) result in assay [7] is given as “Not Active”. Further, the Ki entry in assay [1] and in assay [2] was “Not Active” in each case.

On to `Cc1cn([C@H]2C=C[C@@H](CO)O2)c(=O)[nH]c1=O` [STAVUDINE], for which the half-inhibitory concentration (IC50) entry in assay [1], in assay [2], in assay [3], in assay [4], in assay [5] and in assay [6] was “Not Active” in each case. In addition, the half-inhibitory concentration (IC50) entry in assay [7] is reported as “Not Active”. For the same molecule, the Ki entry in assay [1] and in assay [2] was “Not Active” throughout.

`CC1(C)[C@H](C(=O)O)N2C(=O)C[C@H]2S1(=O)=O` [SULBACTAM]: the IC50 entry in assay [1], in assay [2], in assay [3], in assay [4], in assay [5] and in assay [6] was “Not Active” each time. Also, the half-maximal inhibitory concentration (IC50) result in assay [7] was “Not Active”. The Ki entry in assay [1] and in assay [2] was “Not Active” in each case.

As for `Cc1ccnc(NS(=O)(=O)c2ccc(N)cc2)n1` [SULFAMERAZINE], the IC50 result in assay [1], in assay [2], in assay [3], in assay [4], in assay [5] and in assay [6] was “Not Active” throughout. In assay [7], the half-inhibitory concentration (IC50) result is reported as “Not Active”. The Ki result in assay [1] and in assay [2] was “Not Active” each time.

On to `Cc1nnc(NS(=O)(=O)c2ccc(N)cc2)s1` [SULFAMETHIZOLE], for which the half-maximal inhibitory concentration (IC50) entry in assay [1], in assay [2], in assay [3], in assay [4], in assay [5] and in assay [6] was “Not Active” throughout. Besides, the IC50 entry in assay [7] is recorded as “Not Active”. In addition, the Ki result in assay [1] and in assay [2] was “Not Active” throughout.

`O=C(O)c1cc(/N=N/c2ccc(S(=O)(=O)Nc3ccccn3)cc2)ccc1O` [SULFASALAZINE]: the half-maximal inhibitory concentration (IC50) result in assay [1], in assay [2], in assay [3], in assay [4], in assay [5] and in assay [6] was “Not Active” in each case. Further, the IC50 result in assay [7] is listed as “Not Active”. Further, the Ki result in assay [1] and in assay [2] was “Not Active” in each case.

Take `CCN1CCCC1CNC(=O)c1cc(S(N)(=O)=O)ccc1OC` (stereo not given) [SULPIRIDE]: the half-maximal inhibitory concentration (IC50) entry in assay [1], in assay [2], in assay [3], in assay [4], in assay [5] and in assay [6] was “Not Active” in each case. In addition, the concentration for half-maximal inhibition (IC50) result in assay [7] is “Not Active”. Moreover, the Ki entry in assay [1] and in assay [2] was “Not Active” each time.

In the case of `O=C(OC[C@H]1O[C@@H](OC(=O)c2cc(O)c(O)c(OC(=O)c3cc(O)c(O)c(O)c3)c2)[C@H](OC(=O)c2cc(O)c(O)c(OC(=O)c3cc(O)c(O)c(O)c3)c2)[C@@H](OC(=O)c2cc(O)c(O)c(OC(=O)c3cc(O)c(O)c(O)c3)c2)[C@@H]1OC(=O)c1cc(O)c(O)c(OC(=O)c2cc(O)c(O)c(O)c2)c1)c1cc(O)c(O)c(OC(=O)c2cc(O)c(O)c(O)c2)c1` [TANNIC ACID], the IC50 entry is “Not Active” in assay [1]; “Not Active” in assay [2]; 2720 nM in assay [3] (read-out: IC50); “Not Active” in assay [4]; “Not Active” in assay [5]; 375 nM in assay [6] (read-out: IC50). Besides, in assay [7], the 50% inhibitory concentration (IC50) entry was “Not Active”. The Ki result in assay [1] and in assay [2] was “Not Active” throughout.

For `C#C[C@]1(O)CC[C@H]2[C@@H]3[C@H](C)CC4=C(CCC(=O)C4)[C@H]3CC[C@@]21C` [TIBOLONE], the concentration for half-maximal inhibition (IC50) result in assay [1], in assay [2], in assay [3], in assay [4], in assay [5] and in assay [6] was “Not Active” throughout. In assay [7], the IC50 result is “Not Active”. For the same molecule, the Ki entry in assay [1] and in assay [2] was “Not Active” in each case.

As for `Cc1cccc(C)c1NC(=O)C(C)N` (stereo not given) [TOCAINIDE], the half-maximal inhibitory concentration (IC50) result in assay [1], in assay [2], in assay [3], in assay [4], in assay [5] and in assay [6] was “Not Active” each time. Besides, in assay [7], the IC50 entry is listed as “Not Active”. Also, the Ki result in assay [1] and in assay [2] was “Not Active” throughout.

As to `Cc1ccc(S(=O)(=O)NC(=O)NN2CCCCCC2)cc1` [TOLAZAMIDE], the IC50 entry in assay [1], in assay [2], in assay [3], in assay [4], in assay [5] and in assay [6] was “Not Active” in each case. Moreover, the IC50 result in assay [7] is reported as “Not Active”. Besides, the Ki entry in assay [1] and in assay [2] was “Not Active” each time.

With `CC[C@@]1(O)C(=O)OCc2c1cc1n(c2=O)Cc2cc3c(CN(C)C)c(O)ccc3nc2-1` [TOPOTECAN], the concentration for half-maximal inhibition (IC50) entry in assay [1], in assay [2], in assay [3], in assay [4], in assay [5] and in assay [6] was “Not Active” throughout. For the same molecule, the concentration for half-maximal inhibition (IC50) result in assay [7] is “Not Active”. Besides, the Ki result in assay [1] and in assay [2] was “Not Active” each time.

On to `CC1=C(/C=C/C(C)=C/C=C/C(C)=C/C(=O)O)C(C)(C)CCC1` [TRETINOIN], for which the IC50 result in assay [1], in assay [2], in assay [3], in assay [4], in assay [5] and in assay [6] was “Not Active” throughout. For the same molecule, the half-inhibitory concentration (IC50) result in assay [7] was “Not Active”. Moreover, the Ki result in assay [1] and in assay [2] was “Not Active” throughout.
